The source of these data is PMC7710018, “Restoration of motor learning in a mouse model of Rett syndrome following long-term treatment with a novel small-molecule activator of TrkB” (Disease Models & Mechanisms, 2020).

Test [1] deals with AKT. Nature of the test: In vivo TrkB signaling, western blot of hippocampus and mPFC. Also on record: species or system mouse. The following applies: male Mecp2 null mice, 50 mg/kg i.p. once daily 5 days, 1 h after last injection, vs saline. Here is the method: (§1) Animals were given either single or repeated doses of PTX-BD4-3 (50 mg/kg, i.p.) or vehicle (saline) and then sacrificed for tissue harvesting and western blot analysis of phosphorylated and total TrkB (pTrkB/TrkB), AKT (also known as AKT1) (pAKT/AKT) and ERK (also known as MAPK) (pERK/ERK), respectively, in the hippocampus and medial prefrontal cortex (mPFC).
(§2) Fig. 4. PTX-BD4-3 activates TrkB signaling in vivo following systemic administration in null male Mecp2 mutant mice. Null mice were treated for 5 days with once daily injections of PTX-BD4-3 (open bars, 50 mg/kg, i.p.) or saline (black bars, vehicle) and then sacrificed 1 h after the last injection. Brain lysates from the hippocampus and medial prefrontal cortex (mPFC) were processed for western blot analysis of phosphorylated and total TrkB (pTrkB^Y817/TrkB), AKT (pAKT/AKT) and ERK (pERK/ERK) as described in the Materials and Methods. For detection of total TrkB, AKT and ERK, blots were concomitantly probed with the respective total protein antibodies and each of the three bands quantitated as indicated by arrows. For ERK, the pair of bands (consistent with ERK1 and ERK2 isoforms) indicated by the brackets was quantitated together as one value. For each tissue, the same blot and images for total protein (TrkB, AKT, ERK, actin) are shown here in triplicate as an adjacent reference to phospho-protein detection. For detection of phospho-proteins in the hippocampus, blots were probed separately with the three indicated phospho antibodies. For detection in the mPFC, blots were probed separately for pTrkB and probed for pAKT and pERK concomitantly; and for the latter two, the same blot and image are shown here in duplicate as an adjacent reference to phospho-protein detection. ^§P<0.01 (compared to vehicle); *P<0.05 (compared to vehicle); Student's t-test.
(§3) Frozen tissues were lysed in RIPA lysis buffer (150 mM NaCl, 50 mM Tris, pH 7.4, 1 mM EDTA, 1% Triton X-100 or 1% NP40, 10% glycerol, 1 mM phenylmethylsulfonyl fluoride, Na3VO4 and protease inhibitor cocktail). Lysates were mixed with 4× NuPAGE LDS loading buffer and dithiothreitol, and 50 μg protein was loaded per lane on a NuPAGE 4-12% Bis-Tris gradient gel and transferred to polyvinylidene difluoride membrane (run at 100 V for 1.5 h). […]

Test [2] deals with ERK. Described as above. Also on record: species or system mouse. To be noted: male Mecp2 null mice, 50 mg/kg i.p. once daily 5 days, 1 h after last injection, vs saline. Here is the method:
as §1, §2, §3

For test [3], the system named is TrkB. Described as above. Also on record: species or system mouse. To be noted: male Mecp2 null mice, vs saline. Here is the method: as §1, §2, §3
Test [4] concerns heterozygous (Het) female Mecp2 mutant mice. Nature of the test: Whole-body plethysmography (apnea index). The format is in vivo, mouse. Here is the method: Small-molecule compounds were diluted in saline and delivered by i.p. injection. To define the acute effects of single drug treatments, behavioral testing was initiated 1 h after dosing. Durable effects of single drug treatments were evaluated 24 h after dosing. To define the effects of repeated dosing, mice were treated once every 3 days (q72 h) for 4 or 8 weeks, and behavioral testing was performed 24 h after the last dose.
Breathing was recorded in unrestrained Wt and Het mice using a whole-body plethysmograph (EMMS Systems), in which a constant bias flow supply connected to the animal recording chamber ensured continuous inflow of fresh air (1 l/min) and ambient temperature was maintained between 23°C and 25°C. Animals were allowed to acclimate in the recording chambers for 30 min, and respiratory data were collected for the next 3 h. Because respiration is strongly influenced by behavioral state, data were only analyzed from periods of quiet breathing, which was defined as periods when the animal was not moving and had all four paws on the chamber floor. In most experiments, aggregated episodes of quiet breathing totaling at least 10 min were used for analysis. […] Apneas were defined as breathing pauses longer than 2× the average total breath duration (Ttot) measured during quiet breathing and are reported here as apneas/min (apnea index).

As for `COCCN(C)C(=O)c1cc(C(=O)N(C)CCOC)cc(C(=O)N(C)CCOC)c1` [PTX-BD4-3, benzene-1,3,5-tricarboxylic acid tris-[(2-methoxy-ethyl)-methyl-amide]], the pAKT/AKT entry in test [1] is recorded as “significantly increased”. Also, the pERK/ERK entry in test [2] was “no significant effect”. In addition, in test [3] (50 mg/kg i.p. once daily 5 days, 1 h after last injection, hippocampus and mPFC), the pTrkB/TrkB entry is listed as “significantly increased”. For the same molecule, in test [3] (50 mg/kg i.p.), the “expression of total TrkB, AKT or ERK” value was “No differences”. For the same molecule, the apnea index result is on record as “significantly reduced” in test [4] (Het mice, 5 mg/kg i.p. q72 h for 4 weeks, 24 h after last dose, vs saline-treated Het); “significantly reduced” in test [4] (Het mice, 5 mg/kg i.p. q72 h for 8 weeks, 24 h after last dose, vs saline-treated Het); “no change” in test [4] (single dose 5 mg/kg i.p., drug-naïve mice at 24 weeks of age, 24 h after dosing).
